Active and inactive are the calls of the source. No cut-off for these calls is given here.
What was measured:
[1] = molecular target: T1, 5-hydroxytryptamine receptor 6 (Homo sapiens, UniProt P50406); test: Agonist activity at serotonin 5-HT6 receptor (unknown origin) expressed in HEK293 cells assessed as induction of calcium flux at 10 uM after 60 mins by calcium 4-dye based FLIPR assay relative to control; type: functional, cell-based
[2] = molecular target: 5-hydroxytryptamine receptor 2A (Homo sapiens, UniProt P28223); test: Agonist activity at serotonin 5-HT2A receptor (unknown origin) expressed in HEK293 cells assessed as induction of calcium flux at 10 uM after 60 mins by calcium 4-dye based FLIPR assay relative to control; type: functional, cell-based
Chain of 5-hydroxytryptamine receptor 2A (Homo sapiens, UniProt P28223) (P28223 whole entry): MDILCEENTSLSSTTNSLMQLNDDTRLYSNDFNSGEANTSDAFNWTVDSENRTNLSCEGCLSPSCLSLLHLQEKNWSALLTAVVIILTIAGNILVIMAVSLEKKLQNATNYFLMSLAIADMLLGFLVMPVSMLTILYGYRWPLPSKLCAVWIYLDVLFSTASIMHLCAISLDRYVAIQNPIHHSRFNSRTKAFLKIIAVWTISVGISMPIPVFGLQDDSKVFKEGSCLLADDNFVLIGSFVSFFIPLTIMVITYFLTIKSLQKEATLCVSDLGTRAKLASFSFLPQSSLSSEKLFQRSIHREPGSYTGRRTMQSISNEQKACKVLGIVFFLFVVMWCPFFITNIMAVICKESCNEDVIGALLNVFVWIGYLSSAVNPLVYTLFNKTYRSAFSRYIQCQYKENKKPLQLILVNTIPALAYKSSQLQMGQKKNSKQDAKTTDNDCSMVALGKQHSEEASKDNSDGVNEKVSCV

Mus musculus [3] = organism: Mus musculus; test: animal or person; conditions: Kunming, po
Description: Antipsychotic activity in po dosed Kunming mouse assessed as reduction in MK-801-induced hyperactivity pretreated for 60 mins followed by MK-801 challenge measured for 90 mins

Mus musculus [4] = organism: Mus musculus; test: animal or person; conditions: Kunming, po; remark: listed apart in the source
Description: Antipsychotic activity in po dosed Kunming mouse assessed as reduction in apomorphine-induced climbing pretreated for 30 mins followed by apomorphine injection measured at 10 to 30 mins post dose

[5] = Therapeutic index, ratio of ED50 for catalepsy in Kunming mouse to ED50 for MK-801-induced hyperactivity in Kunming mouse; type: toxicity, organism-based; conditions: in vivo, read-out: Ratio ED50
[6] = Therapeutic index, ratio of ED50 for catalepsy in Kunming mouse to ED50 for apomorphine-induced climbing in Kunming mouse; type: toxicity, organism-based; conditions: in vivo, read-out: Ratio ED50
Mus musculus [7] = test: Induction of catalepsy in po dosed Kunming mouse measured after 60 secs; type: organism-based; conditions: in vivo, 1 min
Rattus norvegicus [8] = test: Cognitive enhancing effect in Sprague-Dawley rat assessed as effect on total exploration time for familiar objects in acquisition trial at 0.3 mg/kg, po administered 1 hr measured for 3 mins by novel object recognition test; type: functional, organism-based
D(2) dopamine receptor [9] = molecular target: D(2) dopamine receptor (Homo sapiens, UniProt P14416); test: Antagonist activity at dopamine D2 receptor long isoform (unknown origin) expressed in HEK293 cells assessed as inhibition of dopamine-induced calcium flux at 10 uM after 15 mins by calcium 4-dye based FLIPR assay relative to control; type: functional, cell-based
Chain of D(2) dopamine receptor (Homo sapiens, UniProt P14416) (P14416 whole entry, canonical isoform): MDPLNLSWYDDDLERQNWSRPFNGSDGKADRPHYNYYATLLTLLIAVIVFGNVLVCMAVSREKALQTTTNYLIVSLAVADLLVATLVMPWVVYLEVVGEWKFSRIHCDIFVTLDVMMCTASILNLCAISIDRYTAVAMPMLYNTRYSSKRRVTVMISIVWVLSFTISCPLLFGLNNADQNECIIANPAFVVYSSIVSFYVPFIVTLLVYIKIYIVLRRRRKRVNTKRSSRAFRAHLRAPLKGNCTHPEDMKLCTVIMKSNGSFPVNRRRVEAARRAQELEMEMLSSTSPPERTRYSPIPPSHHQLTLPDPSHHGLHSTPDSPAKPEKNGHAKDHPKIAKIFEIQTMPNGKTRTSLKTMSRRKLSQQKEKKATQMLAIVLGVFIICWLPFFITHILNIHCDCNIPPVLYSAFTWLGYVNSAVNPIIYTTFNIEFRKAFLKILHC

[10] = molecular target: T2, 5-hydroxytryptamine receptor 2C (Rattus norvegicus, UniProt P08909)
T2 sequence (P08909 whole entry): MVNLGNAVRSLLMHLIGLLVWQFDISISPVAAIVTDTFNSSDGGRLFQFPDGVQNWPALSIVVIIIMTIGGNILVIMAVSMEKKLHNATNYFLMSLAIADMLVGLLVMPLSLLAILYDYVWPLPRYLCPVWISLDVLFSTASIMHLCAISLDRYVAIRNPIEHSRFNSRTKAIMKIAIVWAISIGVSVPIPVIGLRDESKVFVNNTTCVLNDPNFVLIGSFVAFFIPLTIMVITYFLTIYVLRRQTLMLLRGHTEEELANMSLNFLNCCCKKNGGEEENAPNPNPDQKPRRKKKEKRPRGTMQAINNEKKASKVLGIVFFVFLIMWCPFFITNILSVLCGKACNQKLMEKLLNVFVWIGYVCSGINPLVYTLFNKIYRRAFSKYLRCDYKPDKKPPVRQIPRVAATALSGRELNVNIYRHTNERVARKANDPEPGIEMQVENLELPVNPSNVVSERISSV

[11] = molecular target: T1, 5-hydroxytryptamine receptor 6; test: biochemical
[12] = molecular target: Voltage-gated inwardly rectifying potassium channel KCNH2 (Homo sapiens, UniProt Q12809)
Chain of Voltage-gated inwardly rectifying potassium channel KCNH2 (Q12809 whole entry): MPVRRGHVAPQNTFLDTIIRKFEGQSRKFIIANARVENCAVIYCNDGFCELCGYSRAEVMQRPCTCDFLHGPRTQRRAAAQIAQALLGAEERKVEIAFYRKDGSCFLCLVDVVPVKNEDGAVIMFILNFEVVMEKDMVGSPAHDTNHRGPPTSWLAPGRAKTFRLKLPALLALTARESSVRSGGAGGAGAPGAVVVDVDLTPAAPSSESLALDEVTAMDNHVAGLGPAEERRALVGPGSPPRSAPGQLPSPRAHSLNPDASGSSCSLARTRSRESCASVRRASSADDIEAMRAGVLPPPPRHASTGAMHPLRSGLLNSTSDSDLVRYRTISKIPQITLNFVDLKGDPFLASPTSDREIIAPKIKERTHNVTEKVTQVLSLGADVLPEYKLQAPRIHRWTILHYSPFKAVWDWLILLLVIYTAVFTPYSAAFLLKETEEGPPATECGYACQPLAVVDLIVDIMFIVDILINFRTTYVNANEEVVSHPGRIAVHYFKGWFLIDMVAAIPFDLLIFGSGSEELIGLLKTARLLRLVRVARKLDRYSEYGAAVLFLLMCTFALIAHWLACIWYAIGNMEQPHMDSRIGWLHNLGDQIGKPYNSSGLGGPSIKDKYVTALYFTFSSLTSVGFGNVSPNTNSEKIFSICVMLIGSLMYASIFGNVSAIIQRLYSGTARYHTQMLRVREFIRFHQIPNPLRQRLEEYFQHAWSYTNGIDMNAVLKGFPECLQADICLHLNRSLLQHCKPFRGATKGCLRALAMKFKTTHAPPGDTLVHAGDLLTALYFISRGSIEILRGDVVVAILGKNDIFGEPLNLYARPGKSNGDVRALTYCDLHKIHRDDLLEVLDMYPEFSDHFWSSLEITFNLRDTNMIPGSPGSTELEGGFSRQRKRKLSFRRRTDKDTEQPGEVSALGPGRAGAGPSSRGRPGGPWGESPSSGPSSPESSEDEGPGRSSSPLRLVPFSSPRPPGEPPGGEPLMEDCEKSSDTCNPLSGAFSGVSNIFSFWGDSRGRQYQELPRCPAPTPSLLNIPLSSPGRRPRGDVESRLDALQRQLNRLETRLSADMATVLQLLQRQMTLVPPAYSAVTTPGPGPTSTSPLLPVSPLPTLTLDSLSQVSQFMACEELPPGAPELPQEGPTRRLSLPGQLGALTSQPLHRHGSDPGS
Description: Inhibition of human ERG expressed in HEK293 cells at -50 mV holding potential by patch clamp assay

Histamine H1 receptor = Histamine H1 receptor (Cavia porcellus, UniProt P31389)
Chain of Histamine H1 receptor (P31389 whole entry): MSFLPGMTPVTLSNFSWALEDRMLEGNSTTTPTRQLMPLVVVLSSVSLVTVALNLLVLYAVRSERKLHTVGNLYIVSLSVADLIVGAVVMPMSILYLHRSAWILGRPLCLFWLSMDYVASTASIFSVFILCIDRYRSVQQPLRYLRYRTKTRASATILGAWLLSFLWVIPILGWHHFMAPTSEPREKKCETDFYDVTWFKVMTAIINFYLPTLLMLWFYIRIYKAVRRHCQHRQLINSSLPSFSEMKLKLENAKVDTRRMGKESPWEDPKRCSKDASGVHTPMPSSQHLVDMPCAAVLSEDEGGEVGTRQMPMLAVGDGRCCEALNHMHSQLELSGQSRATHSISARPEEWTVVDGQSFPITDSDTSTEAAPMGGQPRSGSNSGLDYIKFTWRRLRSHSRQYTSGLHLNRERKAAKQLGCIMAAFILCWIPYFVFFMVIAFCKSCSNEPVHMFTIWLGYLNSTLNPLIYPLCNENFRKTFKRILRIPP
Description: Displacement of [3H]-mepyramine from histamine H1 receptor in guinea pig cerebellum homogenates incubated for 60 mins by liquid scintillation counting

[13] = molecular target: T3, Adrenergic receptor alpha-1 (Rattus norvegicus, UniProt P15823+P23944+P43140)
T3 sequence (P15823 whole entry): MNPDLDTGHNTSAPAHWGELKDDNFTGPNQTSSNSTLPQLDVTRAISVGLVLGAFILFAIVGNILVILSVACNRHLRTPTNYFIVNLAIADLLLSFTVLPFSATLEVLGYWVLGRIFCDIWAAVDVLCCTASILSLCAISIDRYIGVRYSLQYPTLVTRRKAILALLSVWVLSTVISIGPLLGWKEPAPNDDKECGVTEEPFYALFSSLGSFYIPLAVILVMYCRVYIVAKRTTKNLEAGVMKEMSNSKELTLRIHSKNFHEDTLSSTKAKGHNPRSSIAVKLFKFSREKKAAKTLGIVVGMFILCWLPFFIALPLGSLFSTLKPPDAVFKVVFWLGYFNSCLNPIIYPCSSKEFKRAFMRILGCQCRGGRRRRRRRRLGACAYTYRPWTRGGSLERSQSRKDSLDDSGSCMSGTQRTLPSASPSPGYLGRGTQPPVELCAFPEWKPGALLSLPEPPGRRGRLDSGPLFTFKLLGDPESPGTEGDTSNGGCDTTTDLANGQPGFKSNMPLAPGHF
T3 sequence (P23944 whole entry): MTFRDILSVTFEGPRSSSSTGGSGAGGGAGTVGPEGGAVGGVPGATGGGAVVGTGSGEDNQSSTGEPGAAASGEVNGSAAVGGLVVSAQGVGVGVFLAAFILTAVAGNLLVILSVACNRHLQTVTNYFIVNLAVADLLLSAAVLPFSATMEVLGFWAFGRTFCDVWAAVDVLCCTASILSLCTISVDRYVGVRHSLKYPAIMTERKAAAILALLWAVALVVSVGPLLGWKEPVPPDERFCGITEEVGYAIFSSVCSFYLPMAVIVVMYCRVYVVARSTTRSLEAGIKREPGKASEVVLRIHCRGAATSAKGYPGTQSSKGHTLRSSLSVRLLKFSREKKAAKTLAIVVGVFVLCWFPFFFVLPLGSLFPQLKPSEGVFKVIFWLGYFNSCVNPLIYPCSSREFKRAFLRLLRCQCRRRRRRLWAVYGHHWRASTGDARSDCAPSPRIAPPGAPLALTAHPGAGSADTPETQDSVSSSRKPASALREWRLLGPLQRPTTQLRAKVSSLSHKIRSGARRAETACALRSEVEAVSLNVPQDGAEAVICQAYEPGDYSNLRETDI
T3 sequence (P43140 whole entry): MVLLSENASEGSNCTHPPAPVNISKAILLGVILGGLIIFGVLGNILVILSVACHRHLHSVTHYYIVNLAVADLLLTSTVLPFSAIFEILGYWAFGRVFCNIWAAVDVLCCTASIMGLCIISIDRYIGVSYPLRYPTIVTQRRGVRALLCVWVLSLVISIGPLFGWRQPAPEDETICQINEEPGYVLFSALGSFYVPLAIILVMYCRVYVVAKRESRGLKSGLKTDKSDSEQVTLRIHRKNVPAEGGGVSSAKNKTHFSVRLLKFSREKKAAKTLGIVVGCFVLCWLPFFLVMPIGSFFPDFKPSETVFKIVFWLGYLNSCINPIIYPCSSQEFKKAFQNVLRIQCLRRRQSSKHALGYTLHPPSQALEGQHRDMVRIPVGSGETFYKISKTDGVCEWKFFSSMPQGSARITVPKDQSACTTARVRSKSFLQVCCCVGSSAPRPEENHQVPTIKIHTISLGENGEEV
Description: Displacement of [3H]-prazosin from alpha-1 adrenergic receptor in rat cerebral cortex homogenates incubated for 60 mins by liquid scintillation counting

[14] = molecular target: 5-hydroxytryptamine receptor 2A (Rattus norvegicus, UniProt P14842); test: Displacement of [3H]-ketanserine from serotonin 5-HT2A receptor in rat brain cortex homogenates incubated for 30 mins by liquid scintillation counting
Chain of 5-hydroxytryptamine receptor 2A (Rattus norvegicus, UniProt P14842) (P14842 whole entry): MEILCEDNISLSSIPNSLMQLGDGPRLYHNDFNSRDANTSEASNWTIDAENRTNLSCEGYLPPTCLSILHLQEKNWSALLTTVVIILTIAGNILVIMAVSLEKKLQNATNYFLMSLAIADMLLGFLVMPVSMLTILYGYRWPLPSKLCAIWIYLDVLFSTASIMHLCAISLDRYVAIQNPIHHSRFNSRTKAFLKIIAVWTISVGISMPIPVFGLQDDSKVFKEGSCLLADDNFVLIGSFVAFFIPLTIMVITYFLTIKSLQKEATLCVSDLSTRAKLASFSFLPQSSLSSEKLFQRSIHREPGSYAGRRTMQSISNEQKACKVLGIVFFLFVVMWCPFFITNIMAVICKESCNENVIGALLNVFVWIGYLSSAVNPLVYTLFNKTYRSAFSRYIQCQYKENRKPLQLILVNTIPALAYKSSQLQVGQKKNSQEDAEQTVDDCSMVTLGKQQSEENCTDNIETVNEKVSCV

D(3) dopamine receptor = D(3) dopamine receptor (Rattus norvegicus, UniProt P19020)
Chain of D(3) dopamine receptor (P19020 whole entry): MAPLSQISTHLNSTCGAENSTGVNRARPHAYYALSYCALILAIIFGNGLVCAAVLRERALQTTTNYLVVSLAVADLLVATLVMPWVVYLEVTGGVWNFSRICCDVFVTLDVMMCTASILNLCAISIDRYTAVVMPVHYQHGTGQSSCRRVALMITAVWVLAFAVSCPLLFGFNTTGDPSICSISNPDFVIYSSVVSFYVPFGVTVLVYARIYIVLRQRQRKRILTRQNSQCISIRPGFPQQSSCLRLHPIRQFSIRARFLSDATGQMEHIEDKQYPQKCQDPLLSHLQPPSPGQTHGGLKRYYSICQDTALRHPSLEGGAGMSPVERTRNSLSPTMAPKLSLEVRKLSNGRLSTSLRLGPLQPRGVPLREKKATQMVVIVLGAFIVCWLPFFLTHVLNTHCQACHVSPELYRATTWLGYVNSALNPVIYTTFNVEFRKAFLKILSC

[15] = molecular target: T4, 5-hydroxytryptamine receptor 1A (Rattus norvegicus, UniProt P19327)
T4 sequence (P19327 whole entry): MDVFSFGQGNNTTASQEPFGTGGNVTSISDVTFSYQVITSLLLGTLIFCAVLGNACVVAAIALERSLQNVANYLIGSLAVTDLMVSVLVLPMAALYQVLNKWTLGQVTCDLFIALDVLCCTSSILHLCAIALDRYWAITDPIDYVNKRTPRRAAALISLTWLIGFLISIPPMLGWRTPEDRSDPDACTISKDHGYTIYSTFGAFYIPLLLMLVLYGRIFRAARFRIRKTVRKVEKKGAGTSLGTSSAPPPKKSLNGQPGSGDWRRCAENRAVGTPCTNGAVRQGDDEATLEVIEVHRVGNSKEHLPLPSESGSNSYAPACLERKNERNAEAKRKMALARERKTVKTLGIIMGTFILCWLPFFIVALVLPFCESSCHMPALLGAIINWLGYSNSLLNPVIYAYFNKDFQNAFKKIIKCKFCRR

D(2) dopamine receptor [16] = molecular target: D(2) dopamine receptor (Rattus norvegicus, UniProt P61169)
Chain of D(2) dopamine receptor (Rattus norvegicus, UniProt P61169) (P61169 whole entry): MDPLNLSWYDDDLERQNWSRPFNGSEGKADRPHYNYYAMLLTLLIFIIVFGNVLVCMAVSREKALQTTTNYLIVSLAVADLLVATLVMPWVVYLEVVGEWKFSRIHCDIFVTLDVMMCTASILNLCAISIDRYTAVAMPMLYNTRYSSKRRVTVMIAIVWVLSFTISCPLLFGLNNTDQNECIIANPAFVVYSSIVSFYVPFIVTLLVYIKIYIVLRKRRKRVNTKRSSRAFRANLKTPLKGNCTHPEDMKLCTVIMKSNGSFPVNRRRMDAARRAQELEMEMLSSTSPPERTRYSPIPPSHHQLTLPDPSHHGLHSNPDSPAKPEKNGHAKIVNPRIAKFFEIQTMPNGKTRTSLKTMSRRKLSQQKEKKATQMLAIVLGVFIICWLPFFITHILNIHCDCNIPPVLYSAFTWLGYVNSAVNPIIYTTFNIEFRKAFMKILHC

Mus musculus [17] = test: Induction of weight gain in Kunming mouse at 0.03 to 0.27 mg/kg, po administered for 28 days measured every day during compound dosing; type: organism-based; conditions: in vivo, 672 h
Rattus norvegicus [18] = test: Antipsychotic activity in po dosed Sprague-Dawley rat assessed as reduction in conditioned avoidance response measured at 90 mins post single dose; type: functional; conditions: 1.5 h
Rattus norvegicus [19] = test: Cognitive enhancing effect in Sprague-Dawley rat assessed as effect on total exploration time for familiar objects in acquisition trial at 0.2 mg/kg, po administered 1 hr measured for 3 mins by novel object recognition test; type: functional, organism-based

T1 sequence (P50406 whole entry): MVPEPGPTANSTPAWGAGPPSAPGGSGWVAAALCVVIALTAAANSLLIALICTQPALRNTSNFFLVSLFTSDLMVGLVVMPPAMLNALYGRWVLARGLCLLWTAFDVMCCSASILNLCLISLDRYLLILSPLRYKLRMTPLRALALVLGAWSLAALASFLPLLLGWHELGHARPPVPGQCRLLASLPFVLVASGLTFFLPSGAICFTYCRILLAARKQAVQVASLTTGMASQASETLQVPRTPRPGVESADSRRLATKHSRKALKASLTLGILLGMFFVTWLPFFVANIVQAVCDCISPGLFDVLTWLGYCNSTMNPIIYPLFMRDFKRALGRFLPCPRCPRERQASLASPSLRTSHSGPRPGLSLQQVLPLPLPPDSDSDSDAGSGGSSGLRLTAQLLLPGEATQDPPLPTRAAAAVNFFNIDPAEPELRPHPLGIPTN

Work on `NCCc1c[nH]c2ccc(O)cc12` yielded an Activity [1] of 98% and an Activity [2] of 94.5%.

Work on `O=C(CCCN1CCC(O)(c2ccc(Cl)cc2)CC1)c1ccc(F)cc1` [HALOPERIDOL] yielded an ED50 (Mus musculus [3]) of 0.16 mg/kg, an ED50 (Mus musculus [4]) of 0.11 mg/kg and a selectivity ratio [5] of 0.75. It also gave a selectivity ratio [6] of 1.09 and an ED50 (Mus musculus [7]) of 0.12 mg/kg.

For `CCN(C)C(=O)Oc1cccc([C@H](C)N(C)C)c1`, the Activity (Rattus norvegicus [8]) was “Active”.

In the case of `CN1CCc2cc(Cl)c(O)cc2[C@@H](c2ccccc2)C1`, the inhibition (D(2) dopamine receptor [9]) is reported as 99%.

`O=C1CCc2cc(C(O)CCCN3CCC(c4noc5cc(F)ccc45)CC3)cc3c2N1CC3` (configuration not stated) gave a Ki [10] of 742 nM, a Ki [11] of 6.36 nM and an IC50 [12] of 1900 nM. The Ki (Histamine H1 receptor) was 339 nM, the Ki [13] was 339 nM and the Ki [14] was 69.5 nM. For the same compound, the Ki (D(3) dopamine receptor) was 45.4 nM and the Ki [15] was 22.5 nM.

With `O=C1CCc2cc(CCCCN3CCC(c4noc5cc(F)ccc45)CC3)cc3c2N1CC3` the Ki [10] was 540 nM, the Ki [11] was 17.7 nM and the Ki (D(2) dopamine receptor [16]) was 9.9 nM. The Ki (Histamine H1 receptor) was 712 nM, the Ki [13] was 99.3 nM and the Ki [14] was 19.3 nM. It also gave a Ki (D(3) dopamine receptor) of 54.9 nM and a Ki [15] of 11.7 nM.

In the case of `O=C(CCCN1CCC(c2noc3cc(F)ccc23)CC1)c1cc2c3c(c1)CCN3C(=O)CC2`, the Ki [10] is reported as 610 nM, the Ki [11] is reported as 241 nM and the Ki (D(2) dopamine receptor [16]) is reported as 10.3 nM. The Ki (Histamine H1 receptor) was 421 nM, the Ki [13] was 491.3 nM and the Ki [14] was 9.9 nM. The Ki (D(3) dopamine receptor) was 61.3 nM and the Ki [15] was 12 nM.

In the case of `O=C1CCc2cc(C(O)CCCCN3CCC(c4noc5cc(F)ccc45)CC3)cc3c2N1CC3` (configuration not stated), the Ki [10] is reported as 33.7 nM, the Ki [11] is reported as 29.5 nM and the Ki (D(2) dopamine receptor [16]) is reported as 8.4 nM. For the same compound, the Ki (Histamine H1 receptor) was 43.5 nM, the Ki [13] was 596 nM and the Ki [14] was 0.4 nM. The Ki (D(3) dopamine receptor) was 116 nM and the Ki [15] was 12 nM.

With `Cc1nc2n(c(=O)c1CCN1CCC(c3noc4cc(F)ccc34)CC1)CCCC2` [RISPERIDONE] the ED50 (Mus musculus [3]) was 0.011 mg/kg, the Activity (Mus musculus [17]) was “Toxic” and the ED50 (Mus musculus [4]) was 0.28 mg/kg. The ED50 (Rattus norvegicus [18]) was 0.52 mg/kg, the Activity (Rattus norvegicus [19]) was “inactive” and the ED50 (Mus musculus [7]) was 0.51 mg/kg.

— ChEMBL document CHEMBL4270672, “Synthesis and Biological Evaluation of Fused Tricyclic Heterocycle Piperazine (Piperidine) Derivatives As Potential Multireceptor Atypical Antipsychotics” (J Med Chem, 2018)
